Measured values taken from PubChem BioAssay AID2060622 (Molecular Pharmacology Branch, DTP, NCI, 2025).

Test system: 242566-281-R-J2-PDC complex spheroid viability
Assay: Anticancer human tumor 242566-281-R-J2-PDC patient-derived pancreatic carcinoma cell line growth inhibition [CLK]
Conditions: for IC50: curve of first compound; for viability, T/C: stronger effect = lower value; active means viability on the fitted dose curve at most 10% of control; inactive means the rest
Method in brief: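 Patient-derived tumor cells grown as complex spheroids with HUVEC endothelial cells and mesenchymal stem cells, treated with drug combinations. Concentrations descend in half-log steps from near clinical Cmax, or from 10 microM if Cmax unknown.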

[1] = second compound 0.0316 µM, first compound 0.0316 µM
[2] = second compound 0.0316 µM, first compound 0.1 µM
[3] = second compound 0.0316 µM, first compound 0.316 µM
[4] = second compound 0.0316 µM, first compound 1 µM
[5] = second compound 0.0316 µM, first compound 3.16 µM
[6] = second compound 0.0316 µM, first compound 10 µM
[7] = second compound 0.1 µM, first compound 0.0316 µM
[8] = second compound 0.1 µM, first compound 0.1 µM
[9] = second compound 0.1 µM, first compound 0.316 µM
[10] = second compound 0.1 µM, first compound 1 µM
[11] = second compound 0.1 µM, first compound 3.16 µM
[12] = second compound 0.1 µM, first compound 10 µM
[13] = second compound 0.316 µM, first compound 0.0316 µM
[14] = second compound 0.316 µM, first compound 0.1 µM
[15] = second compound 0.316 µM, first compound 0.316 µM
[16] = second compound 0.316 µM, first compound 1 µM
[17] = second compound 0.316 µM, first compound 3.16 µM
[18] = second compound 0.316 µM, first compound 10 µM
[19] = second compound 1 µM, first compound 0.0316 µM
[20] = second compound 1 µM, first compound 0.1 µM
[21] = second compound 1 µM, first compound 0.316 µM
[22] = second compound 1 µM, first compound 1 µM
[23] = second compound 1 µM, first compound 3.16 µM
[24] = second compound 1 µM, first compound 10 µM
[25] = second compound 3.16 µM, first compound 0.0316 µM
[26] = second compound 3.16 µM, first compound 0.1 µM
[27] = second compound 3.16 µM, first compound 0.316 µM
[28] = second compound 3.16 µM, first compound 1 µM
[29] = second compound 3.16 µM, first compound 3.16 µM
[30] = second compound 3.16 µM, first compound 10 µM
[31] = second compound 10 µM, first compound 0.0316 µM
[32] = second compound 10 µM, first compound 0.1 µM
[33] = second compound 10 µM, first compound 0.316 µM
[34] = second compound 10 µM, first compound 1 µM
[35] = second compound 10 µM, first compound 3.16 µM
[36] = second compound 10 µM, first compound 10 µM
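Further: spheroids exposed to compounds for 7 days before readout.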
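Wherever viability, T/C is given: 100% = DMSO vehicle control wells.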

CC(=O)O[C@H]1C(=O)[C@@]2(C)[C@H]([C@H](OC(=O)c3ccccc3)[C@]3(O)C[C@H](OC(=O)[C@H](O)[C@@H](NC(=O)c4ccccc4)c4ccccc4)C(C)=C1C3(C)C)[C@]1(OC(C)=O)CO[C@@H]1C[C@@H]2O + CN1CCN(c2cc(C(=O)Nc3cc4cc(-c5cnn(C)c5)ccc4cn3)ccn2)CC1
< 31.6 nM: IC50 (second compound 0.0316 µM) | IC50 (second compound 0.1 µM) | IC50 (second compound 0.316 µM) | IC50 (second compound 1 µM) | IC50 (second compound 3.16 µM) | IC50 (second compound 10 µM)
active: viability, T/C [19] 5.85% | viability, T/C [20] 4.53% | viability, T/C [21] 5.01% | viability, T/C [22] 4.32% | viability, T/C [23] 5.32% | viability, T/C [24] 5.54% | viability, T/C [25] 7.09% | viability, T/C [26] 7.07% | viability, T/C [27] 7.24% | viability, T/C [28] 7.25% | viability, T/C [29] 7.67% | viability, T/C [30] 7.22% | viability, T/C [31] 1.45% | viability, T/C [32] 1.31% | viability, T/C [33] 1% | viability, T/C [34] 1.28% | viability, T/C [35] 1.57% | viability, T/C [36] 1.05%
inactive: viability, T/C [1] 37% | viability, T/C [2] 33.4% | viability, T/C [3] 28.9% | viability, T/C [4] 26.7% | viability, T/C [5] 32.2% | viability, T/C [6] 34.8% | viability, T/C [7] 43.7% | viability, T/C [8] 29.1% | viability, T/C [9] 27.7% | viability, T/C [10] 25.2% | viability, T/C [11] 29.1% | viability, T/C [12] 28.6% | viability, T/C [13] 15.9% | viability, T/C [14] 15.5% | viability, T/C [15] 15.1% | viability, T/C [16] 17.2% | viability, T/C [17] 25% | viability, T/C [18] 31.3%

CCc1c2c(nc3ccc(O)cc13)-c1cc3c(c(=O)n1C2)COC(=O)[C@]3(O)CC + CN1CCN(c2cc(C(=O)Nc3cc4cc(-c5cnn(C)c5)ccc4cn3)ccn2)CC1
< 3.16 nM: IC50 (second compound 0.316 µM) | IC50 (second compound 1 µM) | IC50 (second compound 3.16 µM) | IC50 (second compound 10 µM)
4.12 nM: IC50 (second compound 0.1 µM)
inactive: viability, T/C (second compound 0.0316 µM, first compound 0.00316 µM) 75.4% | viability, T/C (second compound 0.0316 µM, first compound 0.01 µM) 47.6% | viability, T/C [1] 17.3% | viability, T/C (second compound 0.1 µM, first compound 0.00316 µM) 57% | viability, T/C (second compound 0.1 µM, first compound 0.01 µM) 26.9% | viability, T/C [7] 9.57% | viability, T/C (second compound 0.316 µM, first compound 0.00316 µM) 13.3%
active: viability, T/C [2] 8.08% | viability, T/C [3] 4.41% | viability, T/C [4] 2.2% | viability, T/C [8] 5.51% | viability, T/C [9] 3.73% | viability, T/C [10] 1.87% | viability, T/C (second compound 0.316 µM, first compound 0.01 µM) 7.58% | viability, T/C [13] 4.52% | viability, T/C [14] 2.86% | viability, T/C [15] 1.79% | viability, T/C [16] 1.15% | viability, T/C (second compound 1 µM, first compound 0.00316 µM) 3.62% | viability, T/C (second compound 1 µM, first compound 0.01 µM) 3.2% | viability, T/C [19] 2.53% | viability, T/C [20] 2.3% | viability, T/C [21] 1.39% | viability, T/C [22] 1.39% | viability, T/C (second compound 3.16 µM, first compound 0.00316 µM) 5.73% | viability, T/C (second compound 3.16 µM, first compound 0.01 µM) 5.04% | viability, T/C [25] 3.5% | viability, T/C [26] 3.24% | viability, T/C [27] 2.82% | viability, T/C [28] 1.82% | viability, T/C (second compound 10 µM, first compound 0.00316 µM) 1.17% | viability, T/C (second compound 10 µM, first compound 0.01 µM) 0.88% | viability, T/C [31] 0.45% | viability, T/C [32] 0.5% | viability, T/C [33] 0.49% | viability, T/C [34] 0.31%
8.95 nM: IC50 (second compound 0.0316 µM)

COc1ccc([C@@H](O)c2cc(-c3ncnc4cc(N5CCOCC5)ccc34)c(F)cc2Cl)nn1 + CN1CCN(c2cc(C(=O)Nc3cc4cc(-c5cnn(C)c5)ccc4cn3)ccn2)CC1
6170 nM: IC50 (second compound 0.1 µM)
< 31.6 nM: IC50 (second compound 0.316 µM) | IC50 (second compound 1 µM) | IC50 (second compound 3.16 µM) | IC50 (second compound 10 µM)
active: viability, T/C [19] 5.5% | viability, T/C [20] 4.93% | viability, T/C [21] 4.05% | viability, T/C [22] 4.46% | viability, T/C [23] 4.87% | viability, T/C [24] 5.56% | viability, T/C [25] 6.52% | viability, T/C [26] 6.92% | viability, T/C [27] 5.95% | viability, T/C [28] 6.56% | viability, T/C [29] 7.75% | viability, T/C [30] 6.44% | viability, T/C [31] 1.12% | viability, T/C [32] 1.29% | viability, T/C [33] 1.09% | viability, T/C [34] 1.69% | viability, T/C [35] 2.12% | viability, T/C [36] 1.23%
> 10000 nM: IC50 (second compound 0.0316 µM)
inactive: viability, T/C [1] 106% | viability, T/C [2] 104% | viability, T/C [3] 90.4% | viability, T/C [4] 87% | viability, T/C [5] 70.3% | viability, T/C [6] 50.1% | viability, T/C [7] 97.9% | viability, T/C [8] 85% | viability, T/C [9] 80.1% | viability, T/C [10] 73.6% | viability, T/C [11] 67.5% | viability, T/C [12] 38.8% | viability, T/C [13] 30.2% | viability, T/C [14] 22.3% | viability, T/C [15] 26.9% | viability, T/C [16] 20.3% | viability, T/C [17] 25% | viability, T/C [18] 11.8%

COc1cccc2c1C(=O)c1c(O)c3c(c(O)c1C2=O)CC(O)(C(=O)CO)CC3OC1CC(N)C(O)C(C)O1 (stereo not given) + CN1CCN(c2cc(C(=O)Nc3cc4cc(-c5cnn(C)c5)ccc4cn3)ccn2)CC1
< 31.6 nM: IC50 (second compound 0.316 µM) | IC50 (second compound 1 µM) | IC50 (second compound 3.16 µM) | IC50 (second compound 10 µM)
inactive: viability, T/C [1] 67% | viability, T/C [2] 31.7% | viability, T/C [7] 66.5% | viability, T/C [8] 25.1% | viability, T/C [13] 26.1%
50 nM: IC50 (second compound 0.1 µM)
active: viability, T/C [3] 8.7% | viability, T/C [4] 4.2% | viability, T/C [5] 1.44% | viability, T/C [6] 2.53% | viability, T/C [9] 5.6% | viability, T/C [10] 2.26% | viability, T/C [11] 1.22% | viability, T/C [12] 1.37% | viability, T/C [14] 7.56% | viability, T/C [15] 1.25% | viability, T/C [16] 1.1% | viability, T/C [17] 1.58% | viability, T/C [18] 1.58% | viability, T/C [19] 4.67% | viability, T/C [20] 4.62% | viability, T/C [21] 2.83% | viability, T/C [22] 3.28% | viability, T/C [23] 2.48% | viability, T/C [24] 2.27% | viability, T/C [25] 6.53% | viability, T/C [26] 5.78% | viability, T/C [27] 5.19% | viability, T/C [28] 3.29% | viability, T/C [29] 2.58% | viability, T/C [30] 1.42% | viability, T/C [31] 1.13% | viability, T/C [32] 1.22% | viability, T/C [33] 0.74% | viability, T/C [34] 0.66% | viability, T/C [35] 0.57% | viability, T/C [36] 0.17%
55 nM: IC50 (second compound 0.0316 µM)

O=c1[nH]cc(F)c(=O)[nH]1 + CN1CCN(c2cc(C(=O)Nc3cc4cc(-c5cnn(C)c5)ccc4cn3)ccn2)CC1
inactive: viability, T/C [1] 109% | viability, T/C [2] 101% | viability, T/C [3] 103% | viability, T/C [4] 77% | viability, T/C [5] 61.4% | viability, T/C [6] 56.1% | viability, T/C [7] 97.8% | viability, T/C [8] 81.2% | viability, T/C [9] 81.7% | viability, T/C [10] 69.8% | viability, T/C [11] 54.8% | viability, T/C [12] 44.9% | viability, T/C [13] 38.5% | viability, T/C [14] 35.3% | viability, T/C [15] 30.8% | viability, T/C [16] 25.4% | viability, T/C [17] 24.9% | viability, T/C [18] 18.9%
> 10000 nM: IC50 (second compound 0.0316 µM)
5960 nM: IC50 (second compound 0.1 µM)
< 31.6 nM: IC50 (second compound 0.316 µM) | IC50 (second compound 1 µM) | IC50 (second compound 3.16 µM) | IC50 (second compound 10 µM)
active: viability, T/C [19] 4.56% | viability, T/C [20] 4.75% | viability, T/C [21] 3.93% | viability, T/C [22] 4.22% | viability, T/C [23] 3.79% | viability, T/C [24] 3.85% | viability, T/C [25] 7.11% | viability, T/C [26] 6.79% | viability, T/C [27] 6.18% | viability, T/C [28] 6.26% | viability, T/C [29] 5.72% | viability, T/C [30] 5.29% | viability, T/C [31] 1.55% | viability, T/C [32] 1.68% | viability, T/C [33] 1.19% | viability, T/C [34] 1.49% | viability, T/C [35] 1.43% | viability, T/C [36] 1.2%
